Experiments:
Type in all cases: in vivo
Scirpus juncoides [1] = assay: Test Example 2: herbicidal effect test by application during growth period of paddy rice; details: 120 g per 10 ares, applied seven days after sowing, flooded pots, 14 days after application; for inhibition at 1200 g/ha: Schoenoplectiella juncoides, read-out: weed inhibition rate
How it was run: (§1)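 Weeds sown into puddled, flooded paddy soil received a post-emergence water application of emulsifiable concentrate at 120 g active ingredient per 10 ares, seven days after sowing. Herbicidal effect was rated 14 days later as inhibition (%).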

[2] = test system: Echinochloa crus-galli var. formosensis; assay: as above; details: 120 g per 10 ares, applied seven days after sowing, flooded pots, 14 days after application; for inhibition at 1200 g/ha: Echinochloa crus-galli, read-out: weed inhibition rate
How it was run: as §1

Echinochloa crus-galli [3] = assay: Test Example 4: herbicidal effect test by stem and leaf treatment in upland field; details: 120 g per 10 ares, sprayed seven days after sowing, upland soil, 14 days after application; for inhibition at 1200 g/ha: Echinochloa crus-galli, read-out: weed inhibition rate
Digitaria ciliaris [4] = assay: Test Example 3: herbicidal effect test by soil application in upland field; details: 120 g per 10 ares, sprayed one day after sowing, 14 days after application; for inhibition at 1200 g/ha: Digitaria ciliaris, read-out: weed inhibition rate
How it was run: (§2)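 Pre-emergence test: seeds mixed into top 1 cm of alluvial loam upland soil in pots; emulsifiable concentrate diluted in water sprayed on soil one day after sowing at 100 L/10 a, 120 g a.i./10 a. Weed inhibition rate (%) scored at 14 days, in duplicate.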

Echinochloa crus-galli [5] = assay: as above; details: 120 g per 10 ares, sprayed one day after sowing, 14 days after application; for inhibition at 1200 g/ha: Echinochloa crus-galli, read-out: weed inhibition rate
How it was run: as §2

Scirpus juncoides [6] = assay: Test Example 1: herbicidal effect test by soil application in paddy rice; details: 120 g active ingredient per 10 ares, applied immediately after sowing, flooded pots, 14 days after application; for pest or weed control at 1200 g/ha: Schoenoplectiella juncoides, soil, 336 h, read-out: weed inhibition rate
How it was run: (§3)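 Paddy soil in Wagner pots (1/10,000 acre) was fertilized (N:P:K 16:16:16) and puddled, then weed seeds were sown 0–1 cm deep, 30 each. Pots were flooded to ~3 cm and kept in a glass greenhouse. Emulsifiable concentrate diluted in water was dropped on immediately after sowing at 120 g a.i. per 10 ares.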

[7] = test system: Echinochloa crus-galli var. formosensis; assay: as above; details: 120 g active ingredient per 10 ares, applied immediately after sowing, flooded pots, 14 days after application; for pest or weed control at 1200 g/ha: Echinochloa crus-galli, soil, 336 h, read-out: weed inhibition rate
How it was run: as §3

Digitaria ciliaris [8] = assay: Test Example 4: herbicidal effect test by stem and leaf treatment in upland field; details: 120 g per 10 ares, sprayed seven days after sowing, upland soil, 14 days after application; for inhibition at 1200 g/ha: Digitaria ciliaris, read-out: weed inhibition rate

CC(=O)O[C@H]1C[C@]2(C)O[C@@]1(C(C)C)C[C@H]2OCc1ccccc1F (racemic) [1-480, [(1R,2S,4S,SR)-5-[(2-fluorophenyl)methoxy]-4-methyl-1-isopropyl-7-oxabicyclo[2.2.1]heptan-2-yl]acetate]
≥ 80%: weed inhibition rate (Scirpus juncoides [1]) | weed inhibition rate [2] | weed inhibition rate (Echinochloa crus-galli [3]) | weed inhibition rate (Digitaria ciliaris [4]) | weed inhibition rate (Echinochloa crus-galli [5]) | weed inhibition rate (Scirpus juncoides [6]) | weed inhibition rate [7] | weed inhibition rate (Digitaria ciliaris [8])

CC(C)[C@@]12C[C@H](OCc3ccccn3)[C@@](C)(C[C@H]1I)O2 [1-1126, 2-[[(1R,2S,4S,5R)-5-iodo-1-methyl-4-isopropyl-7-oxabicyclo[2.2.1]heptan-2-yl]oxymethyl]pyridine]
≥ 80%: inhibition at 1200 g/ha (Scirpus juncoides [1]) | inhibition at 1200 g/ha [2] | inhibition at 1200 g/ha (Echinochloa crus-galli [3]) | inhibition at 1200 g/ha (Digitaria ciliaris [4]) | inhibition at 1200 g/ha (Echinochloa crus-galli [5]) | pest or weed control at 1200 g/ha (Scirpus juncoides [6]) | pest or weed control at 1200 g/ha [7] | inhibition at 1200 g/ha (Digitaria ciliaris [8])

CC(C)C12CC(OCc3ccccc3C(F)(F)F)C(C)(CC1Cl)O2 (stereo not drawn) [1-1301, 5-chloro-1-methyl-4-isopropyl-2-[[2-(trifluoromethyl)phenyl]methoxy]-7-oxabicyclo[2.2.1]heptane]
≥ 80%: inhibition at 1200 g/ha (Scirpus juncoides [1]) | inhibition at 1200 g/ha [2] | pest or weed control at 1200 g/ha (Scirpus juncoides [6]) | pest or weed control at 1200 g/ha [7]

Cc1noc(C)c1COC1CC2(C(C)C)OC1(C)CC2Cl (stereo not drawn) [1-1325, 4-[(5-chloro-4-isopropyl-1-methyl-7-oxabicyclo[2.2.1]heptan-2-yl)oxymethyl]-3,5-dimethyl-isoxazole]
≥ 80%: inhibition at 1200 g/ha (Scirpus juncoides [1]) | inhibition at 1200 g/ha [2] | pest or weed control at 1200 g/ha (Scirpus juncoides [6]) | pest or weed control at 1200 g/ha [7]

CC#CCO[C@@H]1C[C@]2(C(C)C)O[C@@]1(C)CC2Br (stereo partly drawn) [1-1336, (1S,2R,4R)-5-bromo-2-but-2-ynoxy-1-methyl-4-isopropyl-7-oxabicyclo[2.2.1]heptane]
≥ 80%: inhibition at 1200 g/ha (Scirpus juncoides [1]) | inhibition at 1200 g/ha [2] | inhibition at 1200 g/ha (Echinochloa crus-galli [3]) | inhibition at 1200 g/ha (Digitaria ciliaris [4]) | inhibition at 1200 g/ha (Echinochloa crus-galli [5]) | pest or weed control at 1200 g/ha (Scirpus juncoides [6]) | pest or weed control at 1200 g/ha [7] | inhibition at 1200 g/ha (Digitaria ciliaris [8])

CC(C)C12CC(OCc3ccsc3)C(C)(CC1Br)O2 (stereo not drawn) [1-1390, 5-bromo-1-methyl-4-isopropyl-2-(thiophen-3-ylmethoxy)-7-oxabicyclo[2.2.1]heptane]
≥ 80%: inhibition at 1200 g/ha (Scirpus juncoides [1]) | inhibition at 1200 g/ha [2] | inhibition at 1200 g/ha (Echinochloa crus-galli [3]) | inhibition at 1200 g/ha (Digitaria ciliaris [4]) | inhibition at 1200 g/ha (Echinochloa crus-galli [5]) | pest or weed control at 1200 g/ha (Scirpus juncoides [6]) | pest or weed control at 1200 g/ha [7] | inhibition at 1200 g/ha (Digitaria ciliaris [8])

CC(C)C12CC(OCc3ccccc3OC(F)(F)F)C(C)(CC1I)O2 (stereo not drawn) [1-1418, 2-iodo-1-isopropyl-4-methyl-5-[[2-(trifluoromethoxy)phenyl]methoxy]-7-oxabicyclo[2.2.1]heptane]
≥ 80%: inhibition at 1200 g/ha (Scirpus juncoides [1]) | inhibition at 1200 g/ha [2] | pest or weed control at 1200 g/ha (Scirpus juncoides [6]) | pest or weed control at 1200 g/ha [7]

CC(C)C12CC(OCc3ccccc3C(F)(F)F)C(C)(CC1I)O2 (stereo not drawn) [1-1433, 2-iodo-1-isopropyl-4-methyl-5-[[2-(trifluoromethyl)phenyl]methoxy]-7-oxabicyclo[2.2.1]heptane]
≥ 80%: inhibition at 1200 g/ha (Scirpus juncoides [1]) | inhibition at 1200 g/ha [2] | pest or weed control at 1200 g/ha (Scirpus juncoides [6]) | pest or weed control at 1200 g/ha [7]

C#CCO[C@H]1C[C@]2(C)O[C@@]1(C(C)C)C[C@H]2OCc1ccccc1F [1-1607, (1S,2R,4R,5S)-2-[(2-fluorophenyl)methoxy]-1-methyl-4-isopropyl-5-prop-2-ynoxy-7-oxabicyclo[2.2.1]heptane]
≥ 80%: inhibition at 1200 g/ha (Scirpus juncoides [1]) | inhibition at 1200 g/ha [2] | inhibition at 1200 g/ha (Echinochloa crus-galli [3]) | inhibition at 1200 g/ha (Digitaria ciliaris [4]) | inhibition at 1200 g/ha (Echinochloa crus-galli [5]) | pest or weed control at 1200 g/ha (Scirpus juncoides [6]) | pest or weed control at 1200 g/ha [7] | inhibition at 1200 g/ha (Digitaria ciliaris [8])

CC(C)[C@]12C=C[C@](C)(O1)[C@H](OCc1c(Cl)cccc1Cl)C2 [3-732, (1R,4S,5R)-5-[(2,6-dichlorophenyl)methoxy]-4-methyl-1-isopropyl-7-oxabicyclo[2.2.1]hept-2-ene]
≥ 80%: inhibition at 1200 g/ha (Scirpus juncoides [1]) | inhibition at 1200 g/ha [2] | inhibition at 1200 g/ha (Echinochloa crus-galli [3]) | inhibition at 1200 g/ha (Digitaria ciliaris [4]) | inhibition at 1200 g/ha (Echinochloa crus-galli [5]) | pest or weed control at 1200 g/ha (Scirpus juncoides [6]) | pest or weed control at 1200 g/ha [7] | inhibition at 1200 g/ha (Digitaria ciliaris [8])

CC(C)[C@]12C=C[C@](C)(O1)[C@H](OCc1ccccn1)C2 [3-738, 2-[[(1S,2R,4R)-1-methyl-4-isopropyl-7-oxabicyclo[2.2.1]hept-5-en-2-yl]oxymethyl]pyridine]
≥ 80%: inhibition at 1200 g/ha (Scirpus juncoides [1]) | inhibition at 1200 g/ha [2] | inhibition at 1200 g/ha (Echinochloa crus-galli [3]) | inhibition at 1200 g/ha (Digitaria ciliaris [4]) | inhibition at 1200 g/ha (Echinochloa crus-galli [5]) | pest or weed control at 1200 g/ha (Scirpus juncoides [6]) | pest or weed control at 1200 g/ha [7] | inhibition at 1200 g/ha (Digitaria ciliaris [8])

CC(C)[C@@]12C=C[C@@](C)(O1)[C@@H](OCc1ccccc1)C2 [3-748, (1S,4R,5S)-4-methyl-5-phenylmethoxy-1-isopropyl-7-oxabicyclo[2.2.1]hept-2-ene]
≥ 80%: inhibition at 1200 g/ha (Scirpus juncoides [1]) | inhibition at 1200 g/ha [2] | inhibition at 1200 g/ha (Echinochloa crus-galli [3]) | inhibition at 1200 g/ha (Digitaria ciliaris [4]) | inhibition at 1200 g/ha (Echinochloa crus-galli [5]) | pest or weed control at 1200 g/ha (Scirpus juncoides [6]) | pest or weed control at 1200 g/ha [7] | inhibition at 1200 g/ha (Digitaria ciliaris [8])

Cc1ccccc1CO[C@H]1C[C@]2(C(C)C)C=C[C@@]1(C)O2 [3-749, (1S,4R,5S)-4-methyl-5-[(2-methylphenyl)methoxy]-1-isopropyl-7-oxabicyclo[2.2.1]hept-2-ene]
≥ 80%: inhibition at 1200 g/ha (Scirpus juncoides [1]) | inhibition at 1200 g/ha [2] | inhibition at 1200 g/ha (Echinochloa crus-galli [3]) | inhibition at 1200 g/ha (Digitaria ciliaris [4]) | inhibition at 1200 g/ha (Echinochloa crus-galli [5]) | pest or weed control at 1200 g/ha (Scirpus juncoides [6]) | pest or weed control at 1200 g/ha [7] | inhibition at 1200 g/ha (Digitaria ciliaris [8])

CC(C)[C@@]12C=C[C@@](C)(O1)[C@@H](OCc1ccccc1F)C2 [3-750, (1S,4R,5S)-5-[(2-fluorophenyl)methoxy]-4-methyl-1-isopropyl-7-oxabicyclo[2.2.1]hept-2-ene]
≥ 80%: inhibition at 1200 g/ha (Scirpus juncoides [1]) | inhibition at 1200 g/ha [2] | inhibition at 1200 g/ha (Echinochloa crus-galli [3]) | inhibition at 1200 g/ha (Digitaria ciliaris [4]) | inhibition at 1200 g/ha (Echinochloa crus-galli [5]) | pest or weed control at 1200 g/ha (Scirpus juncoides [6]) | pest or weed control at 1200 g/ha [7] | inhibition at 1200 g/ha (Digitaria ciliaris [8])

— patent EP4707280A1, “1,4-CINEOLE DERIVATIVE AND INTERMEDIATE THEREOF, HERBICIDE CONTAINING SAID DERIVATIVE AS ACTIVE INGREDIENT, METHOD FOR USING HERBICIDE, AND METHOD FOR PREPARING AGROCHEMICAL COMPOSITION” (HOKKO CHEMICAL INDUSTRY CO., LTD., priority 2023, dated 2024)
